Literature values in patent US20080131503A1 (priority 2005, published 2008).

Details: oral

Systemic availability of HMG-CoA reductase inhibitory activity: approximately 30%
Structure (SMILES): CC(C)c1c(C(=O)Nc2ccccc2)c(-c2ccccc2)c(-c2ccc(F)cc2)n1CC[C@@H](O)C[C@@H](O)CC(=O)O [Atorvastatin]
